The values below come from publication PMC4707509, “TSPO ligand residence time: a new parameter to predict compound neurosteroidogenic efficacy” (Scientific Reports, 2016).

For experiment [1], the system named is neurosteroid synthesis. Details: method as in PMID 25654303. The note with it: relative to XBD173; cited from earlier work.
Experiment [2] deals with TSPO. Details: method as in PMID 25654303. The note with it: relative to XBD173; cited from earlier work.
Experiment [3] has as its target T1, TSPO (Rattus norvegicus, UniProt P16257).
T1 construct: Membranes from rat kidneys were prepared as described previously; from tissue; host or cells: rat kidney membranes
Nature of the experiment: [3H]PK11195 binding displacement assay, rat kidney membranes. As to conditions: read-out: Equilibrium Ki. On the procedure:
(§1) Membranes from rat kidneys were prepared as described previously. All the experimental procedures were carried out following the guidelines of the European Community Council Directive 86–609 and have been approved by the Committee for animal experimentation of the University of Pisa. The resulting membrane pellets were aliquoted and frozen at –20 °C. For all radioligand binding assays, an aliquot of membranes was thawed, suspended in assay buffer (AB, Tris-HCl 50 mM, pH 7.4) and homogenized using Ultraturrax. In cell membrane homogenate, protein content was measured by the Bradford method[52] using the Bio-Rad Protein Assay reagent.
(§2) All experiments were analyzed by either linear or non linear regression using Prism 5.0 (GraphPad Software Inc., San Diego, CA). […] Competition displacement binding were fitted to sigmoidal (variable slope) curves.

In experiment [4] the target is T1, TSPO. Nature of the experiment: Simplified (one-concentration) competition kinetic association assay. The class given is binding. The note with it: for dissociation rate of the ligand from TSPO (rapid or slow competitor of [3H]PK11195): shape of [3H]PK11195 association curve, ligand at three-fold Ki; for Kd / koff / kon: unlabeled ligand at three-fold Ki only; for Kd: read-out: Kinetically-derived Kd = Koff/Kon. On the procedure: The unlabeled TSPO ligand kinetic parameters were assessed using the theoretical model of Motulsky and Mahan[32]. Unlike methods in which one compound is pre-equilibrated with the receptor, this approach involves the simultaneous addition of both radioligand and competitor to receptor preparation, so that at t = 0 all receptors are unoccupied. […] The degree of bound to TSPO was assessed at multiple time points by filtration harvesting and liquid scintillation counting, as above described. […] For ‘simplified’ competition kinetic association assays, the experiments were performed using concentration of unlabeled TSPO ligands corresponding to three-fold their Ki.
Association and dissociation rates for unlabeled TSPO ligands were calculated by fitting the data in the competition association model using the ‘kinetics of competitive binding’ assay, defining the amount of radioligand bound to receptor ([RL]) as a function of time[32]: […]

The test system of experiment [5] is rat C6 glioma cells. In words: Pregnenolone production in C6 glioma cells (ELISA). It counts as cell-based. As to conditions: for Emax at 100 µM / EC50: Rattus norvegicus, 2 h; for Emax at 100 µM: read-out: Emax (at 100 μM) (vehicle set to 100%); for EC50: read-out: EC50 (pregnenolone production); for steroidogenic efficacy, ranking in words: among all tested TSPO ligands.

Experiment [6] concerns rat. The note with it: cited from earlier work; for anxiolytic activity in EPM test: rat.
Experiment [7] has as its system GABAA receptor. The arrangement: method as in PMID 20728278. As to conditions: conditioned medium of treated glial cells; cited from earlier work.
The subject of experiment [8] is human glial cell model. Details: method as in PMID 20728278. The note with it: cited from earlier work.
For experiment [9], the target named is T1, TSPO. In words: [3H]PK11195 binding saturation assay, rat kidney membranes. As to conditions: [3H]PK11195 saturation binding. On the procedure:
as §1, §2

The mark [10] stands for this setting: displacement of 1 nM [3H]PK11195, rat kidney membranes, 0 °C.
The mark [11] stands for this setting: pregnenolone production at 100 μM ligand, C6 cells.
Where [12] appears, read: C6 cells, 0-100 μM ligand, serum-free.

Where two headings read alike, the source gives them in different places.

Consider `CCNC1=Nc2ccc(Cl)cc2C(C)(c2ccccc2)O1` (stereo not shown) [Etifoxine], for which the “potency to stimulate neurosteroidogenesis compared with XBD173” value in experiment [1] is “more potent”. Moreover, the “binding affinity to TSPO, fold lower than XBD173” value in experiment [2] was “approximately 140 fold”.
The Ki is the equilibrium dissociation constant of an inhibitor or competing ligand from its target. A word on the Emax: it is the greatest response seen or fitted, relative to the assay's reference. Usually EC50 stands for the concentration needed to bring the measured effect to its halfway point. Regarding `CCCN(CCC)C(=O)C(=O)c1c(-c2ccccc2)[nH]c2ccccc12` [PIGA719], the Ki in [3] (setting [10]) turned out to be 0.0122 ± 0.0011 µM. In experiment [4], the “dissociation rate of the ligand from TSPO (rapid or slow competitor of [3H]PK11195)” value (shortened to “dissociation rate of the ligand”) was “rapid” and the Kd was found to be 0.0119 ± 0.001 µM. Also, the Emax at 100 µM in experiment [5] (setting [11]) was found to be 146 ± 2%. For the same compound, the EC50 in experiment [5] (setting [12]) came to 12.9 ± 1.5 µM.
On to `CCCCCCN(CCCCCC)C(=O)C(=O)c1c(-c2ccccc2)[nH]c2ccccc12` [PIGA720], for which, in [3] (setting [10]), the Ki is 0.0014 ± 0.00028 µM. For the same compound, in [4], the “dissociation rate of the ligand” value was “rapid” and the Kd was determined as 0.00179 ± 0.00024 µM. The Emax at 100 µM in [5] (setting [11]) worked out at 144 ± 4%. In addition, the EC50 in [5] (setting [12]) worked out at 29.7 ± 3.1 µM.
Broadly, the koff is the rate constant with which the complex falls apart. A higher koff goes with fast dissociation. What is called kon is the rate constant with which the complex forms. Read a high kon as faster complex formation. As to `CCCCCCN(CCCCCC)C(=O)C(=O)c1c(-c2ccccc2)[nH]c2ccc(Cl)cc12` [PIGA745], the Ki in [3] is 0.0131 ± 0.00116 µM. Moreover, in experiment [4], the “dissociation rate of the ligand” value is listed as “rapid”, the koff was 0.000967 s⁻¹, the kon is 64000 M⁻¹ s⁻¹ and the Kd turned out to be 0.0151 ± 0.00116 µM. Moreover, in experiment [5] (setting [11]), the Emax at 100 µM came out at 140 ± 5%. The EC50 in experiment [5] (setting [12]) was found to be 34.6 ± 3.6 µM.
As to `CCN(Cc1ccccc1)C(=O)C(=O)c1c(-c2ccc(Cl)cc2)[nH]c2ccc(Cl)cc12` [PIGA823], the Ki in [3] (setting [10]) was determined as 0.0033 ± 0.00031 µM. In experiment [4], the “dissociation rate of the ligand” value is listed as “slow” and the Kd turned out to be 0.00186 ± 0.00017 µM. The Emax at 100 µM in [5] (setting [11]) was 272 ± 11%. In [5] (setting [12]), the EC50 came out at 12.2 ± 1.3 µM. Further, the “steroidogenic efficacy, ranking in words” value in experiment [5] (C6 cells) was “highest efficacy”. The “anxiolytic activity in EPM test” value in experiment [6] is “significant anxiolytic activity”.
Turning to `CCCCN(CCCC)C(=O)C(=O)c1c(-c2ccc(Cl)cc2)[nH]c2ccc(Cl)cc12` [PIGA835], the Ki in [3] was 0.00091 ± 0.00011 µM. In [4], the “dissociation rate of the ligand” value is reported as “rapid”, the koff is 0.000967 s⁻¹, the kon was 963000 M⁻¹ s⁻¹ and the Kd was found to be 0.001 ± 0.00019 µM. For the same compound, the Emax at 100 µM in experiment [5] (setting [11]) is 149 ± 4%. The EC50 in experiment [5] (setting [12]) came to 25.6 ± 2.3 µM.
Take `CCCN(CCC)C(=O)C(=O)c1c(-c2ccc(C)cc2)[nH]c2ccccc12` [PIGA839]: in experiment [7], the “36Cl- uptake into cerebral cortical synaptoneurosomes” value is recorded as “potentiated”. The “allopregnanolone in medium of treated cells” value in experiment [8] is on record as “high levels”. Moreover, the Ki in experiment [3] (setting [10]) came out at 0.0055 ± 0.00047 µM. Also, in experiment [4], the “dissociation rate of the ligand” value is given as “slow”, the koff was 0.00015 s⁻¹, the kon is 28200 M⁻¹ s⁻¹ and the Kd was 0.00545 ± 0.0006 µM. Moreover, in experiment [5] (setting [11]), the maximal effect (Emax) at 100 µM is 254 ± 5%. The concentration giving a half-maximal response (EC50) in [5] (setting [12]) is 16.3 ± 1.4 µM. For the same compound, the “steroidogenic efficacy, ranking in words” value in experiment [5] (C6 cells) is on record as “highest efficacy”. For the same compound, in experiment [6], the “anxiolytic activity in EPM test” value is on record as “significant anxiolytic activity”.
Regarding `CCCCCCN(CCCCCC)C(=O)C(=O)c1c(-c2ccccc2)[nH]c2ccc([N+](=O)[O-])cc12` [PIGA925], the Ki in [3] came to 0.0122 ± 0.00314 µM. In addition, in experiment [4], the “dissociation rate of the ligand” value is given as “rapid”, the koff was 0.00113 s⁻¹, the kon was 113000 M⁻¹ s⁻¹ and the Kd came to 0.01 ± 0.00113 µM. Moreover, the Emax at 100 µM in experiment [5] (setting [11]) is 166 ± 5%. For the same compound, in experiment [5] (setting [12]), the EC50 came out at 9.71 ± 1 µM.
As to `CCCN(CCC)C(=O)C(=O)c1c(-c2ccc3ccccc3c2)[nH]c2ccccc12` [PIGA1128], the Ki in experiment [3] (setting [10]) turned out to be 0.00031 ± 2e-05 µM. In addition, in [4], the “dissociation rate of the ligand” value was “slow”, the koff was 0.0003 s⁻¹, the kon is 1.35e+06 M⁻¹ s⁻¹ and the Kd was 0.00022 ± 5e-05 µM. In addition, in experiment [5] (setting [11]), the Emax at 100 µM stood at 179 ± 7%. Further, the EC50 in experiment [5] (setting [12]) was 26.1 ± 1.5 µM.
`CCCCCN(C)C(=O)C(=O)c1c(-c2ccc3ccccc3c2)[nH]c2ccccc12` [PIGA1138]: in experiment [3], the inhibition constant Ki turned out to be 0.00034 ± 3e-05 µM. In [4], the “dissociation rate of the ligand” value is “slow”, the koff is 0.000117 s⁻¹, the kon is 717000 M⁻¹ s⁻¹ and the Kd turned out to be 0.00017 ± 3e-05 µM. The Emax at 100 µM in [5] (setting [11]) was determined as 275 ± 5%. In addition, the concentration for a half-maximal effect (EC50) in experiment [5] (setting [12]) is 13.1 ± 1.4 µM. For the same compound, the “steroidogenic efficacy, ranking in words” value in [5] (C6 cells) is “highest efficacy”.
Regarding `CCCCCCN(CCCCCC)C(=O)C(=O)c1c(-c2ccc(C(=O)O)cc2)[nH]c2ccccc12` [PIGA1214], in experiment [3], the Ki was determined as 0.343 ± 0.0159 µM. Further, in experiment [4], the “dissociation rate of the ligand” value is recorded as “rapid” and the Kd was 0.332 ± 0.015 µM. Further, the maximum response (Emax) at 100 µM in experiment [5] (setting [11]) was 141 ± 4%. Moreover, the EC50 in experiment [5] (setting [12]) is 92 ± 5.6 µM.
`CCC(C)N(C)C(=O)c1cc2ccccc2c(-c2ccccc2Cl)n1` (stereo not shown) [PK11195, reference compound]: the Bmax in experiment [9] was 6498 ± 500 fmol/mg of proteins. The EC50 in experiment [5] was 19.5 ± 1.8 µM. Besides, the Emax at 100 µM in experiment [5] (setting [11]) was found to be 153 ± 4%. For the same compound, in [6], the “anxiolytic effect in EPM test” value is given as “does not determine anxiolytic effect”.
On to `CN1C(=O)CN=C(c2ccc(Cl)cc2)c2cc(Cl)ccc21` [Ro5-4864, reference compound], for which the “dissociation rate of the ligand” value in experiment [4] is reported as “rapid”. Further, in experiment [5], the EC50 amounted to 36.2 ± 2.5 µM and the Emax at 100 µM came out at 150 ± 4%. Also, in [6], the “anxiolytic effect in EPM test” value is listed as “does not determine anxiolytic effect”.
